From patent US10221171B2, “Oxathiazole thiazolium Hsp 70 inhibitors” (THE REGENTS OF THE UNIVERSITY OF CALIFORNIA, priority 2015, dated 2019)
Read-outs that look alike come from different tables or passages of the source.

Experiments:
Assay type in all cases: cell-based
[1] = test system: MCF-7; assay: MTT cell viability assay, MCF-7; conditions: Homo sapiens, MCF7; MTT, 72-hour incubation; read-out: IC50/μM MCF-7
[2] = test system: MEF (C57BL/6); assay: MTT cell viability assay, MEF (C57BL/6); conditions: Mus musculus
[3] = test system: MDA-MB-231; assay: MTT cell viability assay, MDA-MB-231; conditions: Homo sapiens
[4] = MTT, 72-hour incubation, read-out: IC50/μM MEF (C57BL/6)

`CCn1c(=O)/c(=C2\Sc3cc(Br)ccc3N2C)s/c1=C\c1scc[n+]1Cc1ccsc1C(=O)OC` [JG-293] showed an IC50 [1] of 0.3 ± 0.03 µM, an IC50 [2, 4] of 3.1 ± 0.3 µM and an IC50 ([3]; MDA-MB-231, 72-hour incubation) of 0.14 ± 0.03 µM.

`CCn1c(=O)/c(=C2\Sc3cc(Cl)ccc3N2C)s/c1=C\c1scc[n+]1CCc1ccc(C(F)(F)F)cc1` [JG-387] was tested, and the IC50 [1] was 0.78 ± 0.09 µM, the IC50 [2, 4] was > 10 µM and the IC50 ([3]; MDA-MB-231, 72-hour incubation) was 0.74 ± 0.04 µM.

`CCn1c(=O)/c(=C2\Sc3cc(C)ccc3N2C)s/c1=C\c1scc[n+]1Cc1ccccc1C` [JG-284] showed an IC50 [1] of 0.09 ± 0.006 µM, an IC50 [2, 4] of 0.64 ± 0.03 µM and an IC50 ([3]; MDA-MB-231, 72-hour incubation) of 0.09 ± 0.005 µM.

`CCn1c(=O)/c(=C2\Sc3cc(OC)ccc3N2C)s/c1=C\c1scc[n+]1CCc1cccc(Cl)c1` [JG-394] showed an IC50 [1] of 0.56 ± 0.06 µM, an IC50 [2, 4] of 2.3 ± 0.1 µM and an IC50 ([3]; MDA-MB-231, 72-hour incubation) of 0.24 ± 0.01 µM.

`CCn1c(=O)/c(=C2\Sc3cc(C(C)C)ccc3N2C)s/c1=C\c1scc[n+]1Cc1ccccc1Cl` [JG-323] showed an IC50 [1] of 0.12 ± 0.01 µM, an IC50 [2, 4] of 0.53 ± 0.02 µM and an IC50 ([3]; MDA-MB-231, 72-hour incubation) of 0.19 ± 0.01 µM.

`CCn1c(=O)/c(=C2\Sc3cc(OC)ccc3N2C)s/c1=C\c1scc[n+]1CCc1cccc(C(F)(F)F)c1` [JG-393] was tested, and the IC50 [1] was 0.68 ± 0.13 µM, the IC50 [2, 4] was 2.1 ± 0.1 µM and the IC50 ([3]; MDA-MB-231, 72-hour incubation) was 0.21 ± 0.01 µM.

With `CCn1c(=O)/c(=C2\Sc3cc(Br)ccc3N2C)s/c1=C\c1scc[n+]1Cc1ccccc1C(F)(F)F` [JG-292] the IC50 [1] was 0.12 ± 0.01 µM, the IC50 [2, 4] was 2.7 ± 0.1 µM and the IC50 ([3]; MDA-MB-231, 72-hour incubation) was 0.18 ± 0.02 µM.

For `CCn1c(=O)/c(=C2\Sc3cc(OC)ccc3N2C)s/c1=C\c1scc[n+]1CCc1ccc(C(F)(F)F)cc1` [JG-395], the IC50 [1] was 0.51 ± 0.06 µM, the IC50 [2, 4] was 2.9 ± 0.1 µM and the IC50 ([3]; MDA-MB-231, 72-hour incubation) was 0.42 ± 0.03 µM.

Molecule `CCn1c(=O)/c(=C2\Sc3cc(F)ccc3N2C)s/c1=C\c1scc[n+]1Cc1nc(C)sc1C` [JG-275] has an IC50 [1] of 0.27 ± 0.03 µM, an IC50 [2, 4] of 1.6 ± 0.1 µM and an IC50 ([3]; MDA-MB-231, 72-hour incubation) of 0.3 ± 0.03 µM.

In the case of `CCn1c(=O)/c(=C2\Sc3cc(OC)ccc3N2C)s/c1=C\c1scc[n+]1Cc1ccccc1C` [JG-302], the IC50 [1] is reported as 0.12 ± 0.01 µM, the IC50 [2, 4] is reported as 1.8 ± 0.05 µM and the IC50 ([3]; MDA-MB-231, 72-hour incubation) is reported as 0.11 ± 0.01 µM.

`CCn1c(=O)/c(=C2\Sc3cc(C)ccc3N2C)s/c1=C\c1scc[n+]1Cc1ccccc1C(=O)OC` [JG-374] showed an IC50 [1] of 0.16 ± 0.01 µM, an IC50 [2, 4] of 0.69 ± 0.03 µM and an IC50 ([3]; MDA-MB-231, 72-hour incubation) of 0.15 ± 0.01 µM.

`CCn1c(=O)/c(=C2\Sc3cc(C)ccc3N2C)s/c1=C\c1scc[n+]1Cc1c(C)cccc1C` [JG-372] showed an IC50 [1] of 0.18 ± 0.01 µM, an IC50 [2, 4] of 0.67 ± 0.01 µM and an IC50 ([3]; MDA-MB-231, 72-hour incubation) of 0.68 ± 0.16 µM.

Work on `CCn1c(=O)/c(=C2\Sc3cc(Cl)ccc3N2C)s/c1=C\c1scc[n+]1Cc1ccccc1Br` [JG-307] yielded an IC50 [1] of 0.12 ± 0.01 µM, an IC50 [2, 4] of 1.1 ± 0.1 µM and an IC50 ([3]; MDA-MB-231, 72-hour incubation) of 0.13 ± 0.02 µM.

With `CCn1c(=O)/c(=C2\Sc3cc(Cl)ccc3N2C)s/c1=C\c1scc[n+]1CCc1cccc(Cl)c1` [JG-381] the IC50 [1] was 0.55 ± 0.03 µM, the IC50 [2, 4] was 2.3 ± 0.2 µM and the IC50 ([3]; MDA-MB-231, 72-hour incubation) was 0.62 ± 0.05 µM.

`CCn1c(=O)/c(=C2\Sc3ccc(OC)cc3N2C)s/c1=C\c1scc[n+]1Cc1c(Cl)cccc1Cl` [JG-403] was tested, and the IC50 [1] was 0.7 ± 0.08 µM, the IC50 [2, 4] was 1.2 ± 0.1 µM and the IC50 ([3]; MDA-MB-231, 72-hour incubation) was 0.2 ± 0.01 µM.

Work on `CCn1c(=O)/c(=C2\Sc3ccc(C)cc3N2C)s/c1=C\c1scc[n+]1Cc1ccsc1C(=O)OC` [JG-369] yielded an IC50 [1] of 0.063 ± 0.004 µM, an IC50 [2, 4] of 0.44 ± 0.02 µM and an IC50 ([3]; MDA-MB-231, 72-hour incubation) of 0.12 ± 0.01 µM.

In the case of `CCn1c(=O)/c(=C2\Sc3cc(C)ccc3N2C)s/c1=C\c1scc[n+]1CCc1ccccc1C(F)(F)F` [JG-378], the IC50 [1] is reported as 0.13 ± 0.01 µM, the IC50 [2, 4] is reported as 0.87 ± 0.03 µM and the IC50 ([3]; MDA-MB-231, 72-hour incubation) is reported as 0.14 ± 0.02 µM.

With `CCn1c(=O)/c(=C2\Sc3cc(Cl)ccc3N2C)s/c1=C\c1scc[n+]1Cc1cnc(Cl)s1` [JG-259] the IC50 [1] was > 5 µM, the IC50 ([2]; 72 h, read-out: IC50/μM MEF (C57BL/6), MTT, 72-hour incubation) was 8.9 ± 0.8 µM and the IC50 ([3]; MDA-MB-231, 72 h, 72-hour incubation) was 2.3 ± 0.3 µM.

Work on `CCn1c(=O)/c(=C2\Sc3cc(Br)ccc3N2C)s/c1=C\c1scc[n+]1C(C)c1ccccc1` (stereo not drawn) [JG-317] yielded an IC50 [1] of 0.35 ± 0.08 µM, an IC50 [2, 4] of 2.7 ± 0.1 µM and an IC50 ([3]; MDA-MB-231, 72-hour incubation) of 0.14 ± 0.02 µM.

`CCn1c(=O)/c(=C2\Sc3cc(C(C)C)ccc3N2C)s/c1=C\c1scc[n+]1Cc1ccc(C(F)(F)F)o1` [JG-328] was tested, and the IC50 [1] was 0.14 ± 0.02 µM, the IC50 [2, 4] was 0.7 ± 0.03 µM and the IC50 ([3]; MDA-MB-231, 72-hour incubation) was 0.23 ± 0.02 µM.

`CCn1c(=O)/c(=C2\Sc3cc(F)ccc3N2C)s/c1=C\c1scc[n+]1Cc1c(Cl)cccc1Cl` [JG-338] was tested, and the IC50 [1] was 0.17 ± 0.02 µM, the IC50 [2, 4] was 1 ± 0.03 µM and the IC50 ([3]; MDA-MB-231, 72-hour incubation) was 0.14 ± 0.01 µM.

`CCc1ccc2c(c1)S/C(=c1/s/c(=C\c3scc[n+]3Cc3ccccc3C)n(CC)c1=O)N2C` [JG-296] was tested, and the IC50 [1] was 0.1 ± 0.01 µM, the IC50 [2, 4] was 0.61 ± 0.02 µM and the IC50 ([3]; MDA-MB-231, 72-hour incubation) was 0.14 ± 0.01 µM.

`CCn1c(=O)/c(=C2\Sc3cc(Cl)ccc3N2C)s/c1=C\c1scc[n+]1Cc1ccccc1OC(C)=O` [JG-247] gave an IC50 [1] of 1.58 ± 0.18 µM, an IC50 [2, 4] of 6.1 ± 0.3 µM and an IC50 ([3]; MDA-MB-231, 72-hour incubation) of 1.8 ± 0.3 µM.

For `CCn1c(=O)/c(=C2\Sc3cc(C)ccc3N2C)s/c1=C\c1scc[n+]1CCc1ccc(Cl)cc1` [JG-386], the IC50 [1] was 0.53 ± 0.05 µM, the IC50 [2, 4] was 1.7 ± 0.1 µM and the IC50 ([3]; MDA-MB-231, 72-hour incubation) was 0.28 ± 0.03 µM.

For `CN1/C(=c2\s/c(=C\c3scc[n+]3Cc3ccccc3)n(C)c2=O)Sc2ccccc21` [JG-277], the IC50 [1] was 0.39 ± 0.03 µM, the IC50 [2, 4] was 4.1 ± 0.2 µM and the IC50 ([3]; MDA-MB-231, 72-hour incubation) was 0.49 ± 0.05 µM.

`CCn1c(=O)/c(=C2\Sc3cc(Br)ccc3N2C)s/c1=C\c1scc[n+]1Cc1ccccc1Cl` [JG-289] was tested, and the IC50 [1] was 0.27 ± 0.02 µM, the IC50 [2, 4] was 0.96 ± 0.05 µM and the IC50 ([3]; MDA-MB-231, 72-hour incubation) was 0.12 ± 0.02 µM.
